According to patent publication US20050059639A1, “Ophthalmic compositions and method for treating eye discomfort and pain” (priority 2003, published 2005):
Marks after values point to notes of the source that are not given here.

Tests used:
eye disorders = experiment: Estimate of ideal therapeutic eye drop concentration to relieve eye disorders; type: in vivo, human; details: for Eye Therapy: estimate of ideal therapeutic concentration applied as eye drops to relieve eye disorders
Experimental: (§1) The therapeutic concentrations of the preferred analogs are in the range of 10 to 80 μg/ml […], but concentrations as low as 0.1 μg/ml may elicit effects in sensitive individuals.
The potency of certain specific trialkyl phosphine oxides, e.g. isopropyl, sec-butyl, n-octyl-phosphine oxide, in relieving eye discomfort is exceptionally high, on the order of 0.001%. In such situations, an alternative preferred description of an effective unit dose is 0.01 mg/ml or 10 μg/ml, which is equivalent to 0.001% weight percent.

[1] = system: tongue of human volunteers; experiment: Cooling sensations when applied to the tongue of human volunteers; type: in vivo; details: for Duration of Action: duration of the cooling action on the tongue; for Relative Potency: reciprocal of threshold, normalized to unity for analogs with 1.25 μg/ml; for Threshold: threshold for producing cooling sensations on the tongue of human volunteers
Experimental: as §1

[2] = system: medial canthus of the eyelids; experiment: Sensory quality of the solution on the medial canthus of the eyelids / eye surface; type: in vivo, human; details: for Sensory Quality: solution applied on the medial canthus of the eyelids
Description: [table] In selecting a particular analog, it is desirable to have one that has a long duration of action (several hours) and minimal stinging and burning sensations. These parameters are not predicted by the cooling effect of these substances on the human tongue, but must be determined by experiment. […] Thus, the hexyl analog is the preferred therapeutic of the two. The other particularly preferred analogs that have the desired qualities of long duration of action and absence of stinging and burning effects are identified with an asterisk in Table 1.

[3] = system: stinging and burning sensations on the eye; experiment: Adjuncts to reduce stinging of trialkyl phosphine oxide eye drops; type: in vivo, human
Experimental: I conclude that hydrocarbon polyols are useful adjuncts for preparing a therapeutic formulation of a trialkyl phosphine oxide eye drop solution.
(§2) A 0.2% (2.0 mg/ml) disec-butyl-n-heptyl-phosphine oxide eye drop solution was prepared by adding the compound to an isotonic solution of sodium chloride, 0.65% in deionized water, monobasic potassium phosphate/sodium hydroxide buffer, preserved with disodium EDTA and benzalkonium chloride. The liquid was individually aliquoted into a ¼ oz. bottle with a Yorker spout (E.D. Luce Packaging) suitable for droplet delivery. This solution was then applied to the closed eyes of three volunteers, with two to three drops of the solution applied to each eye. The subjects complained of stinging and burning sensations on the eye surface, lasting for about 2 min. A series of six solutions were then prepared in which six different hydrocarbon polyols were added to the parent 0.2% solution. The individual additions were 1.5% sucrose, 1.5% fructose, 1.5% dextrose, 1.5% lactose, 1.5% inositol, or 0.5% carboxymethylcellulose. […] There was some tearing, but no evidence of increased eye redness from the hydrocarbon polyols and subjective complaints of discomfort were minimal.

[4] = system: stinging and burning sensations on the eye; experiment: as above; type: in vivo, human; remark: listed apart in the source
[5] = system: closed eyes of volunteers; experiment: Eye drops applied to medial canthus of closed eyes, kept closed about 1 min; type: in vivo, human; details: 0.2% (2.0 mg/ml) solution, 2-3 drops, closed eyes, three volunteers
Experimental: For trialkyl phosphine oxide eye drop solutions of this invention, I have discovered an indirect method of application as follows. The eye dropper is aimed at the medial canthus (nasal corner) of the eye, the eye is then closed, the dispenser is squeezed to emit the eye drops, and the eye kept closed for about 1 min. This method of application can substantially avoid stinging and burning sensations. Apparently, the adaptation period of about 1 min allows the sensory processes to develop tolerance to the initial stinging and burning stimuli. For example, if a 0.4 mg/ml solution of disec-butyl, n-hexyl-phosphine oxide [synonym, 1-(Di-sec-butyl-phosphinoyl)-hexane] in isotonic-buffered saline is dropped on the open eye, it causes stinging and burning for about 1 min. However, applied onto the corners of the eye, with the eyes closed for 1 min, these stinging and burning sensations are avoided. The medial canthus is preferred to the lateral canthus because the geometry of the orbit permits a longer residence time for the eye drop applied to the medial corner. Drops applied to the lateral canthus are less precisely located and rapidly dribble off the zygoma (cheekbone). A user can be instructed in this indirect method by including the instructions on packaging labels and/or inserts associated with the doses.
The solution, as in Example 1, was then used by another three subjects with the instruction to apply the droplets to the nasal corner of the eye (medial canthus), without touching the tip of the dispenser to the eyelid surface, to let the solution seep into the eyelids and eye surface but to keep eyes closed for at least one minute. The subjects reported slight sensations of stinging when the eyes were opened, effects that lasted for less than 1 minute, followed by sensations of coolness and comfort lasting at least two hours. The experiment was then repeated, but with a higher concentration of 0.2% of disec-butyl-n-hexyl-phosphine oxide.
as §2

| Molecule | Eye Therapy (eye disorders) | Duration of Action [1] [min] | Relative Potency [1] | Threshold [1] [µg/mL] | Sensory Quality [2] | further results |
| --- | --- | --- | --- | --- | --- | --- |
| CCC(C)P(=O)(CCC(C)C)CCC(C)C (stereo not shown) [iso-C5H11 / iso-C5H11 / sec-C4H9, di-isopentyl-sec-butyl phosphine oxide] | >150 µg/mL | 5 | 0.06 | 20 | cool/sting |  |
| OC[C@H]1O[C@@](CO)(O[C@H]2O[C@H](CO)[C@@H](O)[C@H](O)[C@H]2O)[C@@H](O)[C@@H]1O [sucrose] |  |  |  |  |  | effect of adjunct on initial stinging sensations ([3]; in vivo): reduce the initial stinging sensations; effect of adjunct on stinging and burning sensations of several trialkyl phosphine oxide solutions ([4]; in vivo): substantially reduced |
| OC[C@H]1O[C@@H](O[C@H]2[C@H](O)[C@@H](O)C(O)O[C@@H]2CO)[C@H](O)[C@@H](O)[C@H]1O (stereo partly shown) [lactose] |  |  |  |  |  | effect of adjunct on initial stinging sensations ([3]; in vivo): reduce the initial stinging sensations |
| CCCCCCCCP(=O)(C(C)C)C(C)CC (stereo not shown) [n-C8H17 / iso-C3H7 / sec-C4H9, isopropyl, sec-butyl, n-octyl-phosphine oxide] | 10* μg/ml | 18 | 10 | 0.1 | cool only | potency in relieving eye discomfort (eye disorders; weight percent, equivalent to 10 μg/ml): ~0.001% |
| CCCCCP(=O)(CC)CCCCC [n-C5H11 / n-C5H11 / n-C2H5] | >1000 µg/mL | 5 | <0.008 | >150 | cool/sting |  |
| CCCCCCCP(=O)(C(C)C)C(C)CC (stereo not shown) [n-C7H15 / iso-C3H7 / sec-C4H9] | 10* μg/ml | 18 | 10 | 0.1 | cool only |  |
| CCCCCCP(=O)(CCC)C(C)(C)C (stereo not shown) [n-C6H13 / tert-C4H9 / n-C3H7] | 30* μg/ml | 7.5 | 0.36 | 3.5 | cool only |  |
| OC[C@H]1O[C@H](O[C@]2(CCl)O[C@H](CCl)[C@@H](O)[C@@H]2O)[C@H](O)[C@@H](O)[C@H]1Cl [sucralose, reference compound] |  |  |  |  |  | effect of adjunct on stinging and burning sensations of several trialkyl phosphine oxide solutions ([4]; in vivo): not active |
| CCCCCCCCCP(=O)(CC(C)C)CC(C)C [n-C9H19 / iso-C4H9 / iso-C4H9] | >250 µg/mL | 15 | 0.025 | 50 | cool/sting |  |
| O[C@H]1[C@H](O)[C@@H](O)[C@H](O)[C@@H](O)[C@H]1O [inositol] |  |  |  |  |  | effect of adjunct on initial stinging sensations ([3]; in vivo): reduce the initial stinging sensations; effect of adjunct on stinging and burning sensations of several trialkyl phosphine oxide solutions ([4]; in vivo): substantially reduced |
| CCCP(=O)(CCC)CCC(C)C [i-C5H11 / n-C3H7 / n-C3H7] | >1500 µg/mL | 5 | <0.005 | >250 | cool/sting |  |
| CCCCCCP(=O)(C(C)C)C(C)CC (stereo not shown) [n-C6H13 / iso-C3H7 / sec-C4H0] | 15 µg/mL | 45 | 2.5 | 0.5 | cool/sting |  |
| CCCCCCCP(=O)(CCCCCCC)C(C)(C)C [n-C7H15 / n-C7H15 / tert-C4H9] | >150 µg/mL | 10 | 0.06 | 20 | cool/sting |  |
| CCCCCCP(=O)(CC)CCCCCC [n-C6H13 / n-C6H13 / n-C2H5] | >150 µg/mL | 5 | 0.06 | 20 | cool/sting |  |
| CCCCCCP(=O)(CCCC)C(C)(C)C (stereo not shown) [n-C6H13 / tert-C4H9 / n-C4H9] | 25* μg/ml | 5 | 0.8 | 1.5 | cool only |  |
| CCCCCCP(=O)(CCC(C)C)C(C)C (stereo not shown) [n-C6H13 / iso-C5H11 / iso-C3H7] | 25* μg/ml | 5 | 1 | 1.25 | cool only |  |
| CCCCCCCP(=O)(CCC(C)C)C(C)C (stereo not shown) [n-C7H15 / iso-C5H11 / iso-C3H7] | 20* μg/ml | 5 | 1 | 1.25 | cool/oily |  |
| carboxymethylcellulose |  |  |  |  |  | effect of adjunct on initial stinging sensations ([3]; in vivo): reduce the initial stinging sensations; effect of adjunct on stinging and burning sensations of several trialkyl phosphine oxide solutions ([4]; in vivo): substantially reduced |
| CCCCCCCP(=O)(C(C)CC)C(C)CC (stereo not shown) [n-C7H15 / sec-C4H9 / sec-C4H9, disec-butyl-n-heptyl-phosphine oxide] | 15 µg/mL | 10 | 0.8 | 1.5 | cool/sting | duration of stinging and burning sensations on the eye surface [5]: about 2 min; potency on the human tongue (comparison of the two analogs) ([1]; hexyl vs heptyl analog): about equipotent; activity in producing stinging and burning sensations relative to hexyl analog ([2]; eye surface): three times more active; duration of action on the eye surface relative to hexyl analog ([2]; eye surface): half the duration of action |
| O=C(CO)[C@@H](O)[C@H](O)[C@H](O)CO [fructose] |  |  |  |  |  | effect of adjunct on initial stinging sensations ([3]; added to 0.2% disec-butyl-n-heptyl-phosphine oxide solution, 1.5% (0.5% for carboxymethylcellulose)): reduce the initial stinging sensations; effect of adjunct on stinging and burning sensations of several trialkyl phosphine oxide solutions ([4]; 1 to 2% sucrose, other carbohydrates, 0.5% carboxymethylcellulose, sucralose at equivalent sweetening concentrations): substantially reduced |
| CCCCCCCCP(=O)(C(C)CC)C(C)CC (stereo not shown) [n-C8H17 / sec-C4H9 / sec-C4H9] | 30 µg/mL | 10 | 2.5 | 0.5 | cool/sting |  |
| CCCCCCCCCCP(=O)(CCC(C)C)CCC(C)C [n-C10H21 / iso-C5H11 / iso-C5H11] | >1500 µg/mL | 10 | <0.005 | >250 | cool/sting |  |
| CCCCCCCCP(=O)(CCCCCC)CCCCCC [n-C8H17 / n-C6H13 / n-C6H13] | >1500 µg/mL | 10 | <0.005 | >250 | cool/sting |  |
